From ChEMBL document CHEMBL3132769, “Fragment growing to retain or alter the selectivity of anchored kinase hinge-binding fragments” (Medchemcomm, 2014)

Key:
[1] = target: MAP kinase p38 (Homo sapiens) (UniProt O15264+Q15759+Q16539+P53778); assay: Inhibition of human full length p38 beta2 expressed in Escherichia coli cell assessed as substrate phosphorylation using fluorescence-labelled peptides as substrate at 8 uM after 90 mins by microfluidic peptide phosphorylation assay
[2] = system: Fibroblast growth factor receptor 2 (Homo sapiens), P21802 [N549H]; assay: Inhibition of human FGFR2 N549H mutant catalytic domain expressed in baculovirus assessed as substrate phosphorylation using fluorescence-labelled peptides as substrate at 8 uM after 90 mins by microfluidic peptide phosphorylation assay
[3] = target: Serine/threonine-protein kinase pim-1 (Homo sapiens) (UniProt P11309); assay: Inhibition of human full length PIM1 expressed in baculovirus assessed as substrate phosphorylation using fluorescence-labelled peptides as substrate at 0.2 uM after 90 mins by microfluidic peptide phosphorylation assay
[4] = target: T1, Serine/threonine-protein kinase Chk1 (Homo sapiens) (UniProt O14757); conditions: 9 uM
T1 sequence (whole entry): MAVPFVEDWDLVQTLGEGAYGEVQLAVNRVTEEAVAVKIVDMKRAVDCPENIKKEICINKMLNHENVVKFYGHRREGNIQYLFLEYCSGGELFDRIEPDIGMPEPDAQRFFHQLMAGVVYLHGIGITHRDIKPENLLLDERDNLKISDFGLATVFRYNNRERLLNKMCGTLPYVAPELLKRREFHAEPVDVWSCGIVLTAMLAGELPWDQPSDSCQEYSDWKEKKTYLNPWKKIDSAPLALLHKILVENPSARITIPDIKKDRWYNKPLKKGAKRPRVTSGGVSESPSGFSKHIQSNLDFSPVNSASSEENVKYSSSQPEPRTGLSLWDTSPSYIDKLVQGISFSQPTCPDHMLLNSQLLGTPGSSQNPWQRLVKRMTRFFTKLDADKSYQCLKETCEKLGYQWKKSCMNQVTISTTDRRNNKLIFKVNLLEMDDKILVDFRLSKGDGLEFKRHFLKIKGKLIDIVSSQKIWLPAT
Description: Inhibition of human full length CHK1 expressed in baculovirus assessed as substrate phosphorylation using fluorescence-labelled peptides as substrate at 9 uM after 90 mins by microfluidic peptide phosphorylation assay

[5] = target: T2, Serine/threonine-protein kinase Nek2 (Homo sapiens) (UniProt P51955); assay: Inhibition of human full length NEK2 expressed in baculovirus assessed as substrate phosphorylation using fluorescence-labelled peptides as substrate at 9 uM after 90 mins by microfluidic peptide phosphorylation assay
T2 sequence (whole entry): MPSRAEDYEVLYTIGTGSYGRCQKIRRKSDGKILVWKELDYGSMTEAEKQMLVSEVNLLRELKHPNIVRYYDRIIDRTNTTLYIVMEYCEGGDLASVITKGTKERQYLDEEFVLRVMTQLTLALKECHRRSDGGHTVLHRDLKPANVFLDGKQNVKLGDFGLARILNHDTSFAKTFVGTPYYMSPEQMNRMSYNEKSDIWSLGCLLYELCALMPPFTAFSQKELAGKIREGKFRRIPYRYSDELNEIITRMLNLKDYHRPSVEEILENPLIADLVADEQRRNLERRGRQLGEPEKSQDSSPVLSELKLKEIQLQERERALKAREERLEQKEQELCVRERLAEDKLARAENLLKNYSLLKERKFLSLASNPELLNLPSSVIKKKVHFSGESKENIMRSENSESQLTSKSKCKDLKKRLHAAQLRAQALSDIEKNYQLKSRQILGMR

[6] = target: Fibroblast growth factor receptor 1 (Homo sapiens) (UniProt P11362); assay: Inhibition of human FGFR1 catalytic domain expressed in baculovirus assessed as substrate phosphorylation using fluorescence-labelled peptides as substrate at 95 uM after 90 mins by microfluidic peptide phosphorylation assay
[7] = target: MAP kinase-activated protein kinase 3 (Homo sapiens) (UniProt Q16644); assay: Inhibition of human full length MAPKAPK3 expressed in Escherichia coli cell assessed as substrate phosphorylation using fluorescence-labelled peptides as substrate at 95 uM after 90 mins by microfluidic peptide phosphorylation assay
[8] = target: Dual specificity tyrosine-phosphorylation-regulated kinase 1A (Rattus norvegicus) (UniProt Q63470); assay: Inhibition of rat full length DYRK1a expressed in Escherichia coli cell assessed as substrate phosphorylation using fluorescence-labelled peptides as substrate at 70 uM after 90 mins by microfluidic peptide phosphorylation assay
[9] = target: Mitogen-activated protein kinase 3 (Homo sapiens) (UniProt P27361); assay: Inhibition of human full length ERK1 expressed in Escherichia coli cell assessed as substrate phosphorylation using fluorescence-labelled peptides as substrate at 70 uM after 90 mins by microfluidic peptide phosphorylation assay
[10] = target: Tyrosine-protein kinase ABL1 (Homo sapiens) (UniProt P00519); assay: Inhibition of human full-length ABL expressed in baculovirus assessed as substrate phosphorylation using fluorescence-labelled peptides as substrate at 420 uM after 90 mins by microfluidic peptide phosphorylation assay
[11] = target: T3, MAP kinase-activated protein kinase 5 (Homo sapiens) (UniProt Q8IW41); assay: Inhibition of human full length PRAK expressed in baculovirus assessed as substrate phosphorylation using fluorescence-labelled peptides as substrate at 420 uM after 90 mins by microfluidic peptide phosphorylation assay
T3 sequence (whole entry): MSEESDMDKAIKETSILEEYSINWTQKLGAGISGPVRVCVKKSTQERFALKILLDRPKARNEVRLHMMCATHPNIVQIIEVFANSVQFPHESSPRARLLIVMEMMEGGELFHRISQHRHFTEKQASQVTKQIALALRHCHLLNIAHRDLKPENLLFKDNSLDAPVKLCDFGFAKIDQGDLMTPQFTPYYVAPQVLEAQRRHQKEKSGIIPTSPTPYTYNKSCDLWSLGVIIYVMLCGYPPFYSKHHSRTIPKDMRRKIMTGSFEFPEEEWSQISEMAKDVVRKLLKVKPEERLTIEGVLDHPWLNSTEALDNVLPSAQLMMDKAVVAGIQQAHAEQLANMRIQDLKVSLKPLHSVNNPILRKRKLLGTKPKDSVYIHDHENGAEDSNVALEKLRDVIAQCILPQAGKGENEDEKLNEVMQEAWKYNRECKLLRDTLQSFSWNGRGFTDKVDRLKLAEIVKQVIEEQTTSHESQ

[12] = target: Casein kinase I isoform alpha (Homo sapiens) (UniProt P48729); assay: Inhibition of human full length CSNK1A1 expressed in baculovirus assessed as substrate phosphorylation using fluorescence-labelled peptides as substrate at 420 uM after 90 mins by microfluidic peptide phosphorylation assay
[13] = target: Serine/threonine-protein kinase PAK 2 (Homo sapiens) (UniProt Q13177); assay: Inhibition of human truncated PAK2 expressed in Escherichia coli cell assessed as substrate phosphorylation using fluorescence-labelled peptides as substrate at 420 uM after 90 mins by microfluidic peptide phosphorylation assay
Chain of Serine/threonine-protein kinase PAK 2 (Homo sapiens) (Q13177 whole entry, the tested form may be a part): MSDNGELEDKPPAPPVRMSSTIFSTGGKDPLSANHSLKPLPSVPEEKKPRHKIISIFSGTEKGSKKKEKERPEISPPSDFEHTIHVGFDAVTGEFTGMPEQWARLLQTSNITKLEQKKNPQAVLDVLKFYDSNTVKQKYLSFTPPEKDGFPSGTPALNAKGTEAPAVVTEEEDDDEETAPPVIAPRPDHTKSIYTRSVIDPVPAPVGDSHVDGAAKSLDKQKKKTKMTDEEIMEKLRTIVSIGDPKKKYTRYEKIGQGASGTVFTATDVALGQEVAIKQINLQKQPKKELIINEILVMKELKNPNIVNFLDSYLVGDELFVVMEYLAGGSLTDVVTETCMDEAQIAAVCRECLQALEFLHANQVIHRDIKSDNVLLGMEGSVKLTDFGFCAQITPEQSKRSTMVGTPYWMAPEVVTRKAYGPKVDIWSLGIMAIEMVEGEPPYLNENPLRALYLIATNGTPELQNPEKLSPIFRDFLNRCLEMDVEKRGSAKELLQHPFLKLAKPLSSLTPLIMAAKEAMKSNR

Chain of Fibroblast growth factor receptor 2 (Homo sapiens), P21802 [N549H] (P21802 whole entry N549H, the tested form may be a part): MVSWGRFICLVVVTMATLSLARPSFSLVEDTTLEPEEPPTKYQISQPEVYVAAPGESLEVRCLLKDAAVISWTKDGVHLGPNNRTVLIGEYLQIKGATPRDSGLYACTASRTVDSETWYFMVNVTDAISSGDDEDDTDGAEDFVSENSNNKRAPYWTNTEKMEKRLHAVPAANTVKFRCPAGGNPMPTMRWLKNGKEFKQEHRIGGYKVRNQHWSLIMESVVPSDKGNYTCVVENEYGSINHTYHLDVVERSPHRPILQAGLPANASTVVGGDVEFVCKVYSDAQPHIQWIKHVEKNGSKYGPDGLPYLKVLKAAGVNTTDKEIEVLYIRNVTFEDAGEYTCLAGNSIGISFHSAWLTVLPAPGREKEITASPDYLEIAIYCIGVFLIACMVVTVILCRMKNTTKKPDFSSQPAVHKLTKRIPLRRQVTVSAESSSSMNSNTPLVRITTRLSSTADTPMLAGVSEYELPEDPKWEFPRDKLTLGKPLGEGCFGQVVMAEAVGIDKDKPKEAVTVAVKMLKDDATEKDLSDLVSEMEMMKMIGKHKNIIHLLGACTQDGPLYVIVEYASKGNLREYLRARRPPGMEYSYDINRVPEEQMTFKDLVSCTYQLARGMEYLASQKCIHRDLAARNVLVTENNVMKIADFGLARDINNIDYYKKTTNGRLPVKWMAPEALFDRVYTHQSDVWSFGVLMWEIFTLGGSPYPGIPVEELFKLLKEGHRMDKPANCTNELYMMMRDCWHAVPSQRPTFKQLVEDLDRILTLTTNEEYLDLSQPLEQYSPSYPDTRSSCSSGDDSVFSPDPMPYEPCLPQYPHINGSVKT
Chain of Casein kinase I isoform alpha (Homo sapiens) (P48729 2-337 limits assumed): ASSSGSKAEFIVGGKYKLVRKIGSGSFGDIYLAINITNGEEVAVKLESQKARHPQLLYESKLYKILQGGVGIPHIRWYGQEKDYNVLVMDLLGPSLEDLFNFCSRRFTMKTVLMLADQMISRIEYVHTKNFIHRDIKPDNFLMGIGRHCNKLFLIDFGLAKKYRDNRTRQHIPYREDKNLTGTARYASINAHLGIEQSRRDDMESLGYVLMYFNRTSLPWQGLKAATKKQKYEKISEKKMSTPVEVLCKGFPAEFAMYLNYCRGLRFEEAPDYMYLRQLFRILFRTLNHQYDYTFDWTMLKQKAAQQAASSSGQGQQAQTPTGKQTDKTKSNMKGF
Chain of Tyrosine-protein kinase ABL1 (Homo sapiens) (P00519 whole entry): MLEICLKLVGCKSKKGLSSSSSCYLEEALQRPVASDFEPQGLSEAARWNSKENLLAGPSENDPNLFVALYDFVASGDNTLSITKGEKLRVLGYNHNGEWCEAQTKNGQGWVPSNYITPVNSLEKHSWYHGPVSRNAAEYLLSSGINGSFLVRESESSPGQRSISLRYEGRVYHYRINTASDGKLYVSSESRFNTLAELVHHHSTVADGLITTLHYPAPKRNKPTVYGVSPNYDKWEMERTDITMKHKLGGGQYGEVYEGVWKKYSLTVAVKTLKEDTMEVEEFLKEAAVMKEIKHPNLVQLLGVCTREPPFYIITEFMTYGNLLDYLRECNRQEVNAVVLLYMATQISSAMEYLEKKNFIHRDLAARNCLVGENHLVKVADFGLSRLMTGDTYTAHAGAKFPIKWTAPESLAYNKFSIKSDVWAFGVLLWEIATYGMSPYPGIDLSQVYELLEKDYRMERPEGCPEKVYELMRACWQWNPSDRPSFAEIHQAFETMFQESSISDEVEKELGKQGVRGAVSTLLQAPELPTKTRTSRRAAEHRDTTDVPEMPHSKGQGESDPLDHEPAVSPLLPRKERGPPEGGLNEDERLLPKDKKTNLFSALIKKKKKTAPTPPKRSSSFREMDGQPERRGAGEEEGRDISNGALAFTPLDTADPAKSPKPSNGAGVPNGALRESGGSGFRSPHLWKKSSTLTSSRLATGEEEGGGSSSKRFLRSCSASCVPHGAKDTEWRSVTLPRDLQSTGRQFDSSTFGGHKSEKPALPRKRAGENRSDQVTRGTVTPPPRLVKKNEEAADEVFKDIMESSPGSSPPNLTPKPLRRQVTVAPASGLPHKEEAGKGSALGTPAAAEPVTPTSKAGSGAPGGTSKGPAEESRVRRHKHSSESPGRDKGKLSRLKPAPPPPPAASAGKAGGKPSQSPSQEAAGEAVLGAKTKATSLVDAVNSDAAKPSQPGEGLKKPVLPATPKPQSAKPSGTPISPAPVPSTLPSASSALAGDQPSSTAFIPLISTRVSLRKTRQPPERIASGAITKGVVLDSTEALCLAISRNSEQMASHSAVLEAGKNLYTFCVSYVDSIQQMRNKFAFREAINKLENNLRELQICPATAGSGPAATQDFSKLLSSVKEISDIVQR
Chain of Serine/threonine-protein kinase pim-1 (Homo sapiens) (P11309 whole entry, looked up): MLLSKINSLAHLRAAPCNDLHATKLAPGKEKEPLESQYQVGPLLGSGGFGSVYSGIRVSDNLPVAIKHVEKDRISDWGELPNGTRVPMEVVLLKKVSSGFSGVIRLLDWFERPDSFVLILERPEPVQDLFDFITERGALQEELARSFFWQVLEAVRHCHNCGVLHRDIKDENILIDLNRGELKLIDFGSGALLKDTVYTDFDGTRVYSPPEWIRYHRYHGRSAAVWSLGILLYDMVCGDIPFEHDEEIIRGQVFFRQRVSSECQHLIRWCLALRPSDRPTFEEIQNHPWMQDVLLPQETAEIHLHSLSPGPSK
Chain of MAP kinase-activated protein kinase 3 (Homo sapiens) (Q16644 whole entry, looked up): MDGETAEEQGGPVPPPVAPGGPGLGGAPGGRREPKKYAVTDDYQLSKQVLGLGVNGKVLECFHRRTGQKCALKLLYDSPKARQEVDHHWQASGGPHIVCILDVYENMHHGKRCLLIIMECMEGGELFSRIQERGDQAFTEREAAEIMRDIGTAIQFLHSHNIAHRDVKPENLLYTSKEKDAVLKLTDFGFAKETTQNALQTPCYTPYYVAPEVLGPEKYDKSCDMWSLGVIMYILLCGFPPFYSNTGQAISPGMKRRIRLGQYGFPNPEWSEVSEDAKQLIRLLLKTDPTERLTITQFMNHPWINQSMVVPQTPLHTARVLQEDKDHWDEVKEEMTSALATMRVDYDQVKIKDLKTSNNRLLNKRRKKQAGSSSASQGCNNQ
Chain of Fibroblast growth factor receptor 1 (Homo sapiens) (P11362 22-822 limits assumed): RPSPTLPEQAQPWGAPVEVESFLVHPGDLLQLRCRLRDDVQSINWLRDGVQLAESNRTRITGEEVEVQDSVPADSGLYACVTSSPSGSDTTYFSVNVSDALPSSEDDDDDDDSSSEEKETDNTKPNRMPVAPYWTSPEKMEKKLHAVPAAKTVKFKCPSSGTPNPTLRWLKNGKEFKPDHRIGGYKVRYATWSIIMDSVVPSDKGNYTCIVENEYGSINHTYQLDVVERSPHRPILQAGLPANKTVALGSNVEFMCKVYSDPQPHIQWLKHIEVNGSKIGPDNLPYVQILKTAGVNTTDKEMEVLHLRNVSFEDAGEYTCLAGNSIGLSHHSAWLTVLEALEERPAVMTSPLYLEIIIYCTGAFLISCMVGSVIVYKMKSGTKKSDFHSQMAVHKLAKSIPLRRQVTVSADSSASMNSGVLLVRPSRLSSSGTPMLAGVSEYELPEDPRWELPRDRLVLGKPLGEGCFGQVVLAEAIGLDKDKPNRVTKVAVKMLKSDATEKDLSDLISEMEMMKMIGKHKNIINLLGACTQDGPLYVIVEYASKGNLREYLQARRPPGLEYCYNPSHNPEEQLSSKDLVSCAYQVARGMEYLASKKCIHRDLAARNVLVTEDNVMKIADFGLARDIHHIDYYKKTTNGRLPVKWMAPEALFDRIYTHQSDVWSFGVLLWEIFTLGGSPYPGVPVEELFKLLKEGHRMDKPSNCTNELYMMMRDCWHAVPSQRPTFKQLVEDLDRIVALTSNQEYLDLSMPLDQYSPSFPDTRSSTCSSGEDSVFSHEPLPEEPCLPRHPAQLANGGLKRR
Chain of Mitogen-activated protein kinase 3 (Homo sapiens) (P27361 whole entry): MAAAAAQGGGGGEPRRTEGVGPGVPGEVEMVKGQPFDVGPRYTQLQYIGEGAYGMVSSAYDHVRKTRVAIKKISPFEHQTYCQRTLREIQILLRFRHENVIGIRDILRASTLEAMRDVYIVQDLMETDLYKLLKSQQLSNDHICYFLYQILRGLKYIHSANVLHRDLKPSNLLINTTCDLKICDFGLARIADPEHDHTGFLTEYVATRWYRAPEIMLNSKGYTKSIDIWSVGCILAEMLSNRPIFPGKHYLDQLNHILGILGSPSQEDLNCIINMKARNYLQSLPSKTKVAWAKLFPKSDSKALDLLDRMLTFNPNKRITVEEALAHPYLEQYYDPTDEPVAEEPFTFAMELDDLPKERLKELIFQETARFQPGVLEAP

## NCC1CCN(c2ncnc3[nH]ccc23)CC1
[1]
  inhibition: 12.5%
[2]
  inhibition: 0%

## Clc1ccc(C2(c3ccc(-c4ncnc5[nH]cnc45)cc3)CCNCC2)cc1
[3]
  inhibition: 0%

## NCC1CN(c2ncnc3[nH]c4cnccc4c23)CCO1 (stereo not drawn)
[4]
  inhibition: 91%
[5]
  inhibition: 6%

## NCCc1ccc(-c2ncnc3[nH]cnc23)cc1
[6]
  inhibition: 72%
[7]
  inhibition: 24%

## CNCc1ccc(-c2ncnc3[nH]cnc23)cc1
[8]
  inhibition: 61%
[9]
  inhibition: 28.5%

## c1nc(N2CCOCC2)c2nc[nH]c2n1
[10]
  inhibition: 69%
[11]
  inhibition: 40%
[12]
  inhibition: 60.5%
[13]
  inhibition: 67.5%
